What was measured:
[1] = target: T1, Human immunodeficiency virus type 1 integrase (Human immunodeficiency virus 1, UniProt Q7ZJM1); assay: Inhibition of HIV1 integrase strand transfer step
[2] = target: T1, Human immunodeficiency virus type 1 integrase; assay: Inhibition of HIV1 integrase 3'-processing step

T1 sequence (Q7ZJM1 whole entry): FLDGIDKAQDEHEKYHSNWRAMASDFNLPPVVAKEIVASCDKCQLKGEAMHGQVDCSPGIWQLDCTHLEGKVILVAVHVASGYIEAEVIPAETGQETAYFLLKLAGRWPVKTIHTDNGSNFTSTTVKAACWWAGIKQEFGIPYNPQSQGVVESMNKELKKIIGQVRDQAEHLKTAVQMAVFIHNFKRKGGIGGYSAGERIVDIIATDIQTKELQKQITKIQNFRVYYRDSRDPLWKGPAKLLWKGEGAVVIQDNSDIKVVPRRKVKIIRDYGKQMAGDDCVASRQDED

Row | IC50 [1] | IC50 [2] | Structure (SMILES)
1 | 4.1 µM | 31.5 µM | O=C(O)C(=O)/C=C(/O)c1nc2c(=O)n(Cc3ccccc3)cnc2n1Cc1ccccc1
2 | 10 µM | 100 µM | O=C(O)C(=O)/C=C(/O)c1nc2cncnc2n1Cc1ccccc1
3 | 790 µM | 1000 µM | O=C(O)C(=O)/C=C(\O)c1ncnc2c1ncn2Cc1ccccc1
4 | 2.7 µM | 30 µM | O=C(O)C(=O)/C=C(\O)c1nc2c(ncn2Cc2ccccc2)c(=O)n1Cc1ccccc1
